Experimental data reported in ChEMBL document CHEMBL3045709, “Increasing resistance against Phytophthora citrophthora in tangelo Nova fruits by modulating polymethoxyflavones levels” (J Agric Food Chem, 2002).
The source made the active and inactive calls. The rule behind the calls is not given here.

How the values were obtained:
Citrus [1] = assay: Induction of resistance against Phytophthora citrophthora in Citrus (tangelo Nova) fruits assessed as increase of polymethoxyflavones levels at 20 to 250 ppm up to 160 days; format: functional
[2] = test system: Phytophthora citrophthora; assay: Antifungal activity against Phytophthora citrophthora after 100 hr; format: functional, organism-based
Citrus [3] = assay: Induction of resistance against Phytophthora citrophthora in Citrus (tangelo Nova) fruits assessed as increase of polymethoxyflavones levels at 20 to 250 ppm after 7 days; format: functional
[4] = test system: Phytophthora citrophthora; assay: Antifungal activity against Phytophthora citrophthora assessed as inhibition of radical growth at 0.1 to 1 g/L up to 200 hr; format: functional, organism-based
[5] = test system: Phytophthora citrophthora; assay: Antifungal activity against Phytophthora citrophthora in tangelo Nova fruits assessed as inhibition of fungal growth at 100 ppm after 3 to 5 days; format: functional; settings: read-out: GI
[6] = test system: Phytophthora citrophthora; assay: Antifungal activity against Phytophthora citrophthora assessed as inhibition of radical growth at 0.05 to 0.4 g/L up to 200 hr; format: functional, organism-based
[7] = test system: Phytophthora citrophthora; assay: Antifungal activity against Phytophthora citrophthora assessed as inhibition of radical growth at 0.2 to 0.6 g/L up to 200 hr; format: functional, organism-based
Penicillium digitatum = assay: Antifungal activity against Penicillium digitatum; format: functional, organism-based

| Compound | Activity (Citrus [1]) | IC50 [2] [µM] | Activity (Citrus [3]) [%] | growth inhibition (GI) [4] | inhibition of growth at 100 ppm [5] [%] | growth inhibition (GI) [6] | growth inhibition (GI) [7] | IC50 (Penicillium digitatum) [µM] |
| --- | --- | --- | --- | --- | --- | --- | --- | --- |
| COc1ccc(-c2oc3c(OC)c(OC)c(OC)c(OC)c3c(=O)c2OC)cc1OC [3,5,6,7,8,3',4'-HEPTAMETHOXYFLAVONE] | 43% | 1040 | 29 | Active |  |  |  |  |
| c1ccc(CNc2ncnc3[nH]cnc23)cc1 [6-BENZYLAMINOPURINE] |  |  |  |  | 60 |  |  |  |
| COc1ccc(-c2cc(=O)c3c(OC)c(OC)c(OC)c(OC)c3o2)cc1OC [NOBILETIN] | Active | 590 | 20 |  |  | Active |  |  |
| COc1ccc(-c2cc(=O)c3c(OC)c(OC)c(OC)cc3o2)cc1OC [SINENSETIN] | Active | 910 | 20 |  |  |  | Active |  |
| COc1ccc(-c2cc(=O)c3c(OC)c(OC)c(OC)c(OC)c3o2)cc1 [TANGERETIN] | Active | 1720 | 12 | Active |  |  |  | 6450 |
